Measurements from patent US11284623B2 (priority 2012, dated 2022).
Read-outs that look alike come from different tables or passages of the source.

Columns and labels:
Type in all cases: in vivo
[1] = test system: Rhizoctonia solani (AG 2); assay: Use example FG-8: efficacy against R. solani assessed on first leaf, pot trials, seed treatment; conditions: 10 g ai per 100 kg seeds, corn
Experimental: (§1) Triticonazole was applied as commercial seed treatment formulation PREMIS 25 FS (25 g/L a.i., BASF SE, Ludwigshafen, Germany). Pyraclostrobin was applied as commercial seed treatment formulation STAMINA (200 g/L a.i., BASF SE, Ludwigshafen, Germany).
(§2) In 4 pot tests in the greenhouse in Limburgerhof, Bacillus subtilis MBI600, as SC formulation of spores with CFU of about 4×10^11 per ml, was tested in the crops corn and rape seed against different pathogens (Fusarium, Rhizoctonia, Scleroftinia) as solo product and in combination with triticonazole or pyraclostrobin. […]
(§3) The efficacy (E) was calculated using the Abbot's formula: E=(1−α/β)·100 • α corresponds to the fungicidal infection of the treated plants in % and • β corresponds to the fungicidal infection of the untreated (control) plants in %
(§4) The expected efficacies of active compound combinations were determined using Colby's formula (Colby, S. R. “Calculating synergistic and antagonistic responses of herbicide combinations”, Weeds 15, pp. 20-22, 1967) and compared with the observed efficacies. […]
(§5) For the assessment, the roots were washed out to evaluate the disease symptoms on the roots. […] In corn in addition the disease symptoms on the first leaf were evaluated according to a 2 class evaluation. […]

[2] = test system: Rhizoctonia solani (AG 2); assay: Use example FG-8: efficacy against R. solani on roots, pot trials, seed treatment; conditions: 10 g ai per 100 kg seeds
Experimental: as §1, §2, §3, §4, §5

[3] = test system: Rhizoctonia solani (AG 2); assay: Use example FG-8: root mass affected by R. solani, pot trials, seed treatment; conditions: 10 g ai per 100 kg seeds; corn infected with R. solani
Experimental: as §1
as §2, with “pyraclostrobin. The application of the different products was done as seed treatment and the seeds were treated in the BASF Seed Solutions Technology Center (SSTC) Limburgerhof using a batch lab treater.” for “pyraclostrobin.”
as §4
For the assessment, the roots were washed out to evaluate the disease symptoms on the roots. […] In corn in addition the disease symptoms on the first leaf were evaluated according to a 2 class evaluation. The figures from the class evaluation were converted into efficacies in % of the untreated control and the efficacy (E) was calculated as follows using Abbot's formula.

Fusarium graminearum [4] = conditions: 5 g ai per 100 kg seeds; corn, lower roots; % of untreated control (Abbot)
Fusarium graminearum [5] = conditions: 5 g ai per 100 kg seeds; corn, mesocotyl

SMILES	Observed efficacy (%) [1] [%]	Observed efficacy (%) [2] [%]	Root mass in % of uninfected control [3] [%]	Observed efficacy (Fusarium graminearum [4]) [%]	Observed efficacy (Fusarium graminearum [5]) [%]
COC(=O)N(OC)c1ccccc1COc1ccn(-c2ccc(Cl)cc2)n1 [Pyraclostrobin]	1.9	28.7	23.3		
CC1(C)CCC(=Cc2ccc(Cl)cc2)C1(O)Cn1cncn1 (centres unmarked) [Triticonazole]				39.8	60
